Test results reported in patent US6914045B2, “Glycopeptide antibiotics” (Wyeth Holdings Corporation, priority 2001, dated 2005).

What was measured:
Assay in all cases: in vitro antibacterial evaluation, MIC by broth dilution
Format in all cases: cell-based
Enterococcus sp. = settings: broth dilution, 18 hours at 35° C.
Summary of the method: (§1)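 MIC = lowest antibiotic concentration preventing visible growth; inoculum 5×10^5 CFU/mL; drug range 64-0.06 μg/mL; Muller-Hinton II […]; NCCLS M7-A2 guidance.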

Escherichia coli = settings: 18 hours at 35° C.
Summary of the method: as §1

Staphylococcus sp. = settings: broth dilution, 18 hours at 35° C.
Summary of the method: as §1

Streptococcus sp. = settings: broth dilution, 18 hours at 35° C.
Summary of the method: as §1

[1] = Enterococcus faecalis (ATCC 29212)
[2] = Enterococcus faecalis (GC 4553)
[3] = Enterococcus faecalis (GC 4554)

CCCCOC(=O)CCC1OCC2OC(OC3C(CO)OC(Oc4ccc(CC5NC(=O)C(C(C)c6ccccc6)NC(=O)CNC(=O)C(CO)NC(=O)C(C(O)C6CNC(=N)N6C6OC(CO)C(O)C(O)C6O)NC(=O)C(C(O)C6CNC(=N)N6)NC5=O)cc4)C(O)C3O)C(O)C(O)C2O1 (stereo not drawn) [Example 114, Cyclo[glycyl-β-methylphenylalanyl-O-[4-O-[4,6-O-(4-butoxy-4-oxobutylidene)hexopyranosyl]-hexopyranosyl]tyrosyl-3-(2-iminoimidazolidin-4-yl)seryl-3-(3-hexopyranosyl-2-iminoimidazolidin-4-yl)serylseryl]]
64 µg/mL: MIC Escherichia coli (ATCC 25922) (Escherichia coli; strain ATCC 25922) | MIC Escherichia coli (GC 4559) (Escherichia coli; strain GC 4559)
1 µg/mL: MIC Escherichia coli (GC 4560) (Escherichia coli; strain GC 4560) | MIC Coagulase Negative Staphylococcus (GC 4548) (Staphylococcus sp.) | MIC Coagulase Negative Staphylococcus (GC 6257) (Staphylococcus sp.) | MIC Staphylococcus aureus (GC 4542) (Staphylococcus sp.) | MIC Staphylococcus haemolyticus (GC 4546) (Staphylococcus sp.) | MIC Staphylococcus aureus (GC 4542) (Staphylococcus sp.; strain GC 4542) | MIC Staphylococcus haemolyticus (GC 4546) (Staphylococcus sp.; strain GC 4546) | MIC Coagulase Negative Staphylococcus (GC 4548) (Staphylococcus sp.; strain GC 4548) | MIC Coagulase Negative Staphylococcus (GC 6257) (Staphylococcus sp.; strain GC 6257)
0.12 µg/mL: MIC Streptococcus pneumoniae (ATCC 6301) (Streptococcus sp.; Streptococcus pneumoniae (ATCC 6301)) | MIC Streptococcus pneumoniae (ATCC 6301) (Streptococcus sp.; strain ATCC 6301)
8 µg/mL: MIC Enterococcus avium (GC 4558) (Enterococcus sp.; Enterococcus avium (GC 4558)) | MIC Enterococcus faecalis (GC 3059) (Enterococcus sp.; Enterococcus faecalis (GC 3059)) | MIC Enterococcus faecalis (GC 4553) (Enterococcus sp.; [2]) | MIC Enterococcus faecalis (GC 3059) (Enterococcus sp.; strain GC 3059) | MIC Enterococcus faecalis (GC 4553) (Enterococcus sp.; strain GC 4553) | MIC Enterococcus avium (GC 4558) (Enterococcus sp.; strain GC 4558)
<0.06 µg/mL: MIC Streptococcus pneumoniae (GC 1894) (Streptococcus sp.; Streptococcus pneumoniae (GC 1894)) | MIC Streptococcus pneumoniae (GC 1894) (Streptococcus sp.; strain GC 1894)
4 µg/mL: MIC Enterococcus faecalis (ATCC 29212) (Enterococcus sp.; [1]) | MIC Enterococcus faecalis (GC 2242) (Enterococcus sp.; Enterococcus faecalis (GC 2242)) | MIC Enterococcus faecalis (GC 2691) (Enterococcus sp.; Enterococcus faecalis (GC 2691)) | MIC Enterococcus faecalis (GC 4552) (Enterococcus sp.; Enterococcus faecalis (GC 4552)) | MIC Enterococcus faecalis (GC 4554) (Enterococcus sp.; [3]) | MIC Enterococcus faecalis (GC 6189) (Enterococcus sp.; Enterococcus faecalis (GC 6189)) | MIC Enterococcus faecium (GC 2243) (Enterococcus sp.; Enterococcus faecium (GC 2243)) | MIC Enterococcus faecium (GC 4556) (Enterococcus sp.; Enterococcus faecium (GC 4556)) | MIC Enterococcus faecalis (ATCC 29212) (Enterococcus sp.; strain ATCC 29212) | MIC Enterococcus faecalis (GC 2242) (Enterococcus sp.; strain GC 2242) | MIC Enterococcus faecium (GC 2243) (Enterococcus sp.; strain GC 2243) | MIC Enterococcus faecalis (GC 2691) (Enterococcus sp.; strain GC 2691) | MIC Enterococcus faecalis (GC 4552) (Enterococcus sp.; strain GC 4552) | MIC Enterococcus faecalis (GC 4554) (Enterococcus sp.; strain GC 4554) | MIC Enterococcus faecium (GC 4556) (Enterococcus sp.; strain GC 4556) | MIC Enterococcus faecalis (GC 6189) (Enterococcus sp.; strain GC 6189)
0.5 µg/mL: MIC Streptococcus agalactiae (GC 4564) (Streptococcus sp.; Streptococcus agalactiae (GC 4564)) | MIC Streptococcus pyogenes (GC 4563) (Streptococcus sp.; Streptococcus pyogenes (GC 4563)) | MIC Streptococcus pyogenes (GC 4563) (Streptococcus sp.; strain GC 4563) | MIC Streptococcus agalactiae (GC 4564) (Streptococcus sp.; strain GC 4564)
0.25 µg/mL: MIC Streptococcus pneumoniae (GC 4565) (Streptococcus sp.; Streptococcus pneumoniae (GC 4565)) | MIC Streptococcus pneumoniae (GC 4565) (Streptococcus sp.; strain GC 4565)
2 µg/mL: MIC Enterococcus faecium (GC 4557) (Enterococcus sp.; Enterococcus faecium (GC 4557)) | MIC Enterococcus faecium (GC 4557) (Enterococcus sp.; strain GC 4557) | MIC Coagulase Negative Staphylococcus (GC 4547) (Staphylococcus sp.) | MIC Coagulase Negative Staphylococcus (GC 4549) (Staphylococcus sp.) | MIC Coagulase Negative Staphylococcus (GC 4551) (Staphylococcus sp.) | MIC Staphylococcus aureus (ATCC 29213) (Staphylococcus sp.) | MIC Staphylococcus aureus (GC 1131) (Staphylococcus sp.) | MIC Staphylococcus aureus (GC 3051) (Staphylococcus sp.) | MIC Staphylococcus aureus (GC 3053) (Staphylococcus sp.) | MIC Staphylococcus aureus (GC 4541) (Staphylococcus sp.) | MIC Staphylococcus aureus (GC 4544) (Staphylococcus sp.) | MIC Staphylococcus aureus (GC 4545) (Staphylococcus sp.) | MIC Staphylococcus aureus-SMITH (GC 4543) (Staphylococcus sp.) | MIC Staphylococcus aureus (GC 1131) (Staphylococcus sp.; inoculum 5×10^5 CFU/mL, strain GC 1131) | MIC Staphylococcus aureus (ATCC 29213) (Staphylococcus sp.; strain ATCC 29213) | MIC Staphylococcus aureus (GC 3051) (Staphylococcus sp.; strain GC 3051) | MIC Staphylococcus aureus (GC 3053) (Staphylococcus sp.; strain GC 3053) | MIC Staphylococcus aureus (GC 4541) (Staphylococcus sp.; strain GC 4541) | MIC Staphylococcus aureus (GC 4544) (Staphylococcus sp.; strain GC 4544) | MIC Staphylococcus aureus (GC 4545) (Staphylococcus sp.; strain GC 4545) | MIC Coagulase Negative Staphylococcus (GC 4547) (Staphylococcus sp.; strain GC 4547) | MIC Coagulase Negative Staphylococcus (GC 4549) (Staphylococcus sp.; strain GC 4549) | MIC Coagulase Negative Staphylococcus (GC 4551) (Staphylococcus sp.; strain GC 4551) | MIC Staphylococcus aureus-SMITH (GC 4543) (Staphylococcus sp.; strain SMITH GC 4543)

CC(C)CC(=O)OC1C(O)C(CO)OC(OC2C(CO)OC(Oc3ccc(CC4NC(=O)C(C(C)c5cccc(F)c5)NC(=O)CNC(=O)C(CO)NC(=O)C(C(O)C5CNC(=N)N5C5OC(CO)C(O)C(O)C5O)NC(=O)C(C(O)C5CNC(=N)N5)NC4=O)cc3)C(O)C2O)C1O (stereo not drawn) [Example 264b, Cyclo[glycyl-3-fluoro-β-methylphenylalanyl-O-[4-O-[3-O-(3-methylbutanoyl)hexopyranosyl]-hexopyranosyl]tyrosyl-3-(2-iminoimidazolidin-4-yl)seryl-3-(3-hexopyranosyl-2-iminoimidazolidin-4-yl)serylseryl]]
32 µg/mL: MIC Enterococcus faecalis (GC 2242) (Enterococcus sp.; strain GC 2242)
4 µg/mL: MIC Escherichia coli (GC 4560) (Escherichia coli; Escherichia coli (GC 4560)) | MIC Coagulase Negative Staphylococcus (GC 4547) (Staphylococcus sp.) | MIC Coagulase Negative Staphylococcus (GC 4548) (Staphylococcus sp.) | MIC Coagulase Negative Staphylococcus (GC 4549) (Staphylococcus sp.) | MIC Staphylococcus aureus (GC 4545) (Staphylococcus sp.) | MIC Staphylococcus haemolyticus (GC 4546) (Staphylococcus sp.) | MIC Staphylococcus aureus (GC 4545) (Staphylococcus sp.; strain GC 4545) | MIC Staphylococcus haemolyticus (GC 4546) (Staphylococcus sp.; strain GC 4546) | MIC Coagulase Negative Staphylococcus (GC 4547) (Staphylococcus sp.; strain GC 4547) | MIC Coagulase Negative Staphylococcus (GC 4548) (Staphylococcus sp.; strain GC 4548) | MIC Coagulase Negative Staphylococcus (GC 4549) (Staphylococcus sp.; strain GC 4549) | MIC Streptococcus agalactiae (GC 4564) (Streptococcus sp.; strain GC 4564) | MIC Streptococcus pyogenes (ID-3187) (Streptococcus sp.; strain ID-3187)
8 µg/mL: MIC Enterococcus faecium (GC 4557) (Enterococcus sp.; Enterococcus faecium (GC 4557)) | MIC Enterococcus faecium (GC 4557) (Enterococcus sp.; strain GC 4557) | MIC Coagulase Negative Staphylococcus (GC 4551) (Staphylococcus sp.) | MIC Staphylococcus aureus (ATCC 29213) (Staphylococcus sp.) | MIC Staphylococcus aureus (GC 1131) (Staphylococcus sp.) | MIC Staphylococcus aureus (GC 4541) (Staphylococcus sp.) | MIC Staphylococcus aureus (GC 4542) (Staphylococcus sp.) | MIC Staphylococcus aureus (GC 4544) (Staphylococcus sp.) | MIC Staphylococcus aureus-SMITH (GC 4543) (Staphylococcus sp.) | MIC Staphylococcus aureus (ATCC 29213) (Staphylococcus sp.; strain ATCC 29213) | MIC Staphylococcus aureus (GC 1131) (Staphylococcus sp.; strain GC 1131) | MIC Staphylococcus aureus (GC 4541) (Staphylococcus sp.; strain GC 4541) | MIC Staphylococcus aureus (GC 4542) (Staphylococcus sp.; strain GC 4542) | MIC Staphylococcus aureus (GC 4544) (Staphylococcus sp.; strain GC 4544) | MIC Coagulase Negative Staphylococcus (GC 4551) (Staphylococcus sp.; strain GC 4551) | MIC Staphylococcus aureus-SMITH (GC 4543) (Staphylococcus sp.; strain SMITH GC 4543)
>64 µg/mL: MIC Escherichia coli (GC 4559) (Escherichia coli; Escherichia coli (GC 4559))
64 µg/mL: MIC Enterococcus avium (GC 4558) (Enterococcus sp.; Enterococcus avium (GC 4558)) | MIC Enterococcus faecalis (ATCC 29212) (Enterococcus sp.; [1]) | MIC Enterococcus faecalis (GC 4553) (Enterococcus sp.; [2]) | MIC Enterococcus faecalis (GC 4554) (Enterococcus sp.; [3]) | MIC Enterococcus faecium (GC 2243) (Enterococcus sp.; Enterococcus faecium (GC 2243)) | MIC Enterococcus faecium (GC 4556) (Enterococcus sp.; Enterococcus faecium (GC 4556)) | MIC Enterococcus faecalis (ATCC 29212) (Enterococcus sp.; strain ATCC 29212) | MIC Enterococcus faecium (GC 2243) (Enterococcus sp.; strain GC 2243) | MIC Enterococcus faecalis (GC 4552) (Enterococcus sp.; strain GC 4552) | MIC Enterococcus faecalis (GC 4553) (Enterococcus sp.; strain GC 4553) | MIC Enterococcus faecalis (GC 4554) (Enterococcus sp.; strain GC 4554) | MIC Enterococcus faecium (GC 4556) (Enterococcus sp.; strain GC 4556) | MIC Enterococcus avium (GC 4558) (Enterococcus sp.; strain GC 4558) | MIC Escherichia coli (ATCC 25922) (Escherichia coli; Escherichia coli (ATCC 25922))
